Assays:
KRAS G12C = KRAS G12C (Homo sapiens, UniProt P01116, G12C); experiment: GDP-GTP exchange assay (KRAS_G12C exchange); format: biochemical; conditions: bodipy-GDP loaded KRAS G12C 2.5 nM, SOS1 150 nM, GppNHp; 2 hours pre-incubation, 2 hours reaction; read-out: G12C_exchange
How it was run: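 Fluorescence exchange of bodipy-GDP for GppNHp, SOS1-driven, read at 485/520 nm; IC50 from four-parameter variable-slope fit. Both mutants used 2.5 nM final labelled protein and a 2 h compound pre-incubation. G12C reaction had 500 uM GppNHp and 150 nM SOS1 for 2 h; G12D ran 4 h.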

[1] = tested on: MIA PaCa-2 (KRAS G12C) cells; experiment: Cellular pERK HTRF assay (KRAS_G12C pERK); format: cell-based, human; conditions: Homo sapiens, MIA PaCa-2, 4 hours incubation, read-out: G12C_pERK
How it was run: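 MIA PaCa-2 cells plated overnight, then exposed to compound for 4 h at 37 °C (G12C compounds). Phospho-ERK1/2 measured in lysates by HTRF (665/620 nm) after overnight antibody incubation; IC50 from percent inhibition versus log concentration.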

KRAS G12C, sequence (P01116 1-188 isoform P01116-2 G12C): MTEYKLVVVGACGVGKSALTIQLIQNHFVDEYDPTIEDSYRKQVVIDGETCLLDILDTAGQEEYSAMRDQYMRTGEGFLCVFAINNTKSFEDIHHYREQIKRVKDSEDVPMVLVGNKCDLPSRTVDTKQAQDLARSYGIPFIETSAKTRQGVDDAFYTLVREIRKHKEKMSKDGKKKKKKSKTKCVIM

SMILES | IC50 (KRAS G12C) [nM] | IC50 [1] [nM]
C=CC(=O)N1CC[C@H](n2nnc3c(O[C@@H](C)CN(C)C)nc4c(F)c(-c5ccc(F)cc5)c(Cl)cc4c32)C[C@H]1CC#N [Example 128, 2-((2S,4S)-1-acryloyl-4-(8-chloro-4-(((S)-1-(dimethylamino)propan-2-yl)oxy)-6-fluoro-7-(4-fluorophenyl)-1H-[1,2,3]triazolo[4,5-c]quinolin-1-yl)piperidin-2-yl)acetonitrile] | ≤ 100 | ≤ 100
CC#CC(=O)N1CC[C@H](n2nnc3c(O[C@@H](C)CN(C)C)nc4c(F)c(-c5ccc(F)cc5)c(Cl)cc4c32)C[C@H]1CC#N [Example 129, 2-((2S,4S)-1-(but-2-ynoyl)-4-(8-chloro-4-(((S)-1-(dimethylamino)propan-2-yl)oxy)-6-fluoro-7-(4-fluorophenyl)-1H-[1,2,3]triazolo[4,5-c]quinolin-1-yl)piperidin-2-yl)acetonitrile] | ≤ 100 | ≤ 100
C[C@@H](CN(C)C)Oc1nc2c(F)c(-c3ccc(F)cc3)c(Cl)cc2c2c1nnn2[C@H]1CCN(C(=O)/C=C/CF)[C@H](CC#N)C1 [Example 130, 2-((2S,4S)-4-(8-chloro-4-(((S)-1-(dimethylamino)propan-2-yl)oxy)-6-fluoro-7-(4-fluorophenyl)-1H-[1,2,3]triazolo[4,5-c]quinolin-1-yl)-1-((E)-4-fluorobut-2-enoyl)piperidin-2-yl)acetonitrile] | ≤ 100 | ≤ 100
C=CC(=O)N1CC[C@H](n2nnc3c(OC[C@@H]4CCCN4C)nc4c(F)c(-c5ccc(F)cc5)c(Cl)cc4c32)C[C@H]1CC#N [Example 131, 2-((2S,4S)-1-acryloyl-4-(8-chloro-6-fluoro-7-(4-fluorophenyl)-4-(((S)-1-methylpyrrolidin-2-yl)methoxy)-1H-[1,2,3]triazolo[4,5-c]quinolin-1-yl)piperidin-2-yl)acetonitrile] | ≤ 100 | ≤ 100
CC#CC(=O)N1CC[C@H](n2nnc3c(O[C@@H](C)CN(C)C)nc4c(F)c(-c5ccc(F)cc5)c(C)cc4c32)C[C@H]1CC#N [Example 133, 2-((2S,4S)-1-(but-2-ynoyl)-4-(4-(((S)-1-(dimethylamino)propan-2-yl)oxy)-6-fluoro-7-(4-fluorophenyl)-8-methyl-1H-[1,2,3]triazolo[4,5-c]quinolin-1-yl)piperidin-2-yl)acetonitrile] | ≤ 100 | ≤ 100
Cc1cc2c(nc(O[C@@H](C)CN(C)C)c3nnn([C@H]4CCN(C(=O)/C=C/CF)[C@H](CC#N)C4)c32)c(F)c1-c1ccc(F)cc1 [Example 134, 2-((2S,4S)-4-(4-(((S)-1-(dimethylamino)propan-2-yl)oxy)-6-fluoro-7-(4-fluorophenyl)-8-methyl-1H-[1,2,3]triazolo[4,5-c]quinolin-1-yl)-1-((E)-4-fluorobut-2-enoyl)piperidin-2-yl)acetonitrile] | ≤ 100 | ≤ 100
C=CC(=O)N1CC[C@H](n2nnc3c(OC[C@@H]4CCCN4C)nc4c(F)c(-c5ccc(F)cc5)c(C)cc4c32)C[C@H]1CC#N [Example 135, 2-((2S,4S)-1-acryloyl-4-(6-fluoro-7-(4-fluorophenyl)-8-methyl-4-(((S)-1-methylpyrrolidin-2-yl)methoxy)-1H-[1,2,3]triazolo[4,5-c]quinolin-1-yl)piperidin-2-yl)acetonitrile] | ≤ 100 | ≤ 100
Cc1cc2c(nc(OC[C@@H]3CCCN3C)c3nnn([C@H]4CCN(C(=O)/C=C/CF)[C@H](CC#N)C4)c32)c(F)c1-c1ccc(F)cc1 [Example 136, 2-((2S,4S)-4-(6-fluoro-7-(4-fluorophenyl)-8-methyl-4-(((S)-1-methylpyrrolidin-2-yl)methoxy)-1H-[1,2,3]triazolo[4,5-c]quinolin-1-yl)-1-((E)-4-fluorobut-2-enoyl)piperidin-2-yl)acetonitrile] | ≤ 100 | ≤ 100
C=CC(=O)N1CC[C@H](n2nnc3c(OC[C@@H]4CCCN4C)nc4c(F)c(-c5cccc(C)c5C)c(C)cc4c32)C[C@H]1CC#N [Example 137, 2-((2S,4S)-1-acryloyl-4-(7-(2,3-dimethylphenyl)-6-fluoro-8-methyl-4-(((S)-1-methylpyrrolidin-2-yl)methoxy)-1H-[1,2,3]triazolo[4,5-c]quinolin-1-yl)piperidin-2-yl)acetonitrile] | ≤ 100 | ≤ 100
Cc1cccc(-c2c(C)cc3c(nc(OC[C@@H]4CCCN4C)c4nnn([C@H]5CCN(C(=O)/C=C/CF)[C@H](CC#N)C5)c43)c2F)c1C [Example 138, 2-((2S,4S)-4-(7-(2,3-dimethylphenyl)-6-fluoro-8-methyl-4-(((S)-1-methylpyrrolidin-2-yl)methoxy)-1H-[1,2,3]triazolo[4,5-c]quinolin-1-yl)-1-((E)-4-fluorobut-2-enoyl)piperidin-2-yl)acetonitrile] | ≤ 100 | ≤ 100
CC#CC(=O)N1CC[C@H](n2nnc3c(OC[C@@H]4CCCN4C)nc4c(F)c(-c5cccc(C)c5C)c(C)cc4c32)C[C@H]1CC#N [Example 139, 2-((2S,4S)-1-(but-2-ynoyl)-4-(7-(2,3-dimethylphenyl)-6-fluoro-8-methyl-4-(((S)-1-methylpyrrolidin-2-yl)methoxy)-1H-[1,2,3]triazolo[4,5-c]quinolin-1-yl)piperidin-2-yl)acetonitrile] | ≤ 100 | ≤ 100

More lines, now with the values ahead:

IC50 (KRAS G12C) [nM] | IC50 [1] [nM] | SMILES
≤ 100 | ≤ 100 | C=CC(=O)N1CC[C@H](n2cnc3c(N4CC(C)(N(C)C)C4)nc4c(F)c(-c5ccc(F)cc5)c(Cl)cc4c32)C[C@H]1CC#N [Example 120, 2-((2S,4S)-1-acryloyl-4-(8-chloro-4-(3-(dimethylamino)-3-methylazetidin-1-yl)-6-fluoro-7-(4-fluorophenyl)-1H-imidazo[4,5-c]quinolin-1-yl)piperidin-2-yl)acetonitrile]
≤ 100 | ≤ 100 | C=CC(=O)N1CC[C@H](n2cnc3c(N4CC(C)(N(C)C)C4)nc4c(F)c(-c5ccc(F)cc5)c(C)cc4c32)C[C@H]1CC#N [Example 121, 2-((2S,4S)-1-acryloyl-4-(4-(3-(dimethylamino)-3-methylazetidin-1-yl)-6-fluoro-7-(4-fluorophenyl)-8-methyl-1H-imidazo[4,5-c]quinolin-1-yl)piperidin-2-yl)acetonitrile]
≤ 100 | ≤ 100 | C=CC(=O)N1CC[C@H](n2cnc3c(O[C@@H](C)CN(C)C)nc4c(F)c(-c5ccc(F)cc5)c(Cl)cc4c32)C[C@H]1CC#N [Example 122, 2-((2S,4S)-1-acryloyl-4-(8-chloro-4-(((S)-1-(dimethyl-amino)propan-2-yl)oxy)-6-fluoro-7-(4-fluorophenyl)-1H-imidazo[4,5-c]quinolin-1-yl)piperidin-2-yl)acetonitrile]
≤ 100 | ≤ 100 | C=CC(=O)N1CC[C@H](n2cnc3c(-n4ccnc4C)nc4c(F)c(-c5ccc(F)cc5)c(Cl)cc4c32)C[C@H]1CC#N [Example 123, 2-((2S,4S)-1-acryloyl-4-(8-chloro-6-fluoro-7-(4-fluorophenyl)-4-(2-methyl-1H-imidazol-1-yl)-1H-imidazo[4,5-c]quinolin-1-yl)piperidin-2-yl)acetonitrile]
≤ 100 | ≤ 100 | Cc1nccn1-c1nc2c(F)c(-c3ccc(F)cc3)c(Cl)cc2c2c1ncn2[C@H]1CCN(C(=O)/C=C/CN(C)C)[C@H](CC#N)C1 [Example 124, 2-((2S,4S)-4-(8-chloro-6-fluoro-7-(4-fluorophenyl)-4-(2-methyl-1H-imidazol-1-yl)-1H-imidazo[4,5-c]quinolin-1-yl)-1-((E)-4-(dimethylamino)-but-2-enoyl)piperidin-2-yl)acetonitrile]
≤ 100 | ≤ 100 | Cc1nccn1-c1nc2c(F)c(-c3ccc(F)cc3)c(Cl)cc2c2c1ncn2[C@H]1CCN(C(=O)/C=C/CF)[C@H](CC#N)C1 [Example 125, 2-((2S,4S)-4-(8-chloro-6-fluoro-7-(4-fluorophenyl)-4-(2-methyl-1H-imidazol-1-yl)-1H-imidazo[4,5-c]quinolin-1-yl)-1-((E)-4-fluorobut-2-enoyl)piperidin-2-yl)acetonitrile]
≤ 100 | ≤ 100 | C=CC(=O)N1CC[C@H](n2nnc3c(N4CC(C)(N(C)C)C4)nc4c(F)c(-c5ccc(F)cc5)c(Cl)cc4c32)C[C@H]1CC#N [Example 126, 2-((2S,4S)-1-acryloyl-4-(8-chloro-4-(3-(dimethylamino)-3-methylazetidin-1-yl)-6-fluoro-7-(4-fluorophenyl)-1H-[1,2,3]triazolo[4,5-c]quinolin-1-yl)piperidin-2-yl)acetonitrile]
≤ 100 | ≤ 100 | C=CC(=O)N1CC[C@H](n2nnc3c(N4CC(C)(N(C)C)C4)nc4c(F)c(-c5ccc(F)cc5)c(C)cc4c32)C[C@H]1CC#N [Example 127, 2-((2S,4S)-1-acryloyl-4-(4-(3-(dimethylamino)-3-methylazetidin-1-yl)-6-fluoro-7-(4-fluorophenyl)-8-methyl-1H-[1,2,3]triazolo[4,5-c]quinolin-1-yl)piperidin-2-yl)acetonitrile]
≤ 100 | ≤ 100 | C=CC(=O)N1CC[C@H](n2nnc3c(O[C@@H](C)CN(C)C)nc4c(F)c(-c5ccc(F)cc5)c(C)cc4c32)C[C@H]1CC#N [Example 132, 2-((2S,4S)-1-acryloyl-4-(4-(((S)-1-(dimethylamino)propan-2-yl)oxy)-6-fluoro-7-(4-fluorophenyl)-8-methyl-1H-[1,2,3]triazolo[4,5-c]quinolin-1-yl)piperidin-2-yl)acetonitrile]
